{"source": "patent US20100267561A1", "about": "“HERBICIDAL PYRIDAZINONE DERIVATIVES” (priority 2007, published 2010)", "test_in_all_cases": "Test B pre-/postemergence plant response", "type_in_all_cases": "in vivo", "key": {"[1]": {"test_system": "Russian thistle (Salsola iberica)", "conditions": "Preemergence; for Russian Thistle plant response rating: scale 0 to 100", "how_it_was_run": "(§1)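 Visual scoring from 0 (no effect) to 100 (complete control) against untreated controls was done 13 to 15 days after greenhouse treatment. Chemicals were formulated in a surfactant-containing non-phytotoxic solvent and applied to soil preemergence or to 1- to 4-leaf (2-18 cm) plants postemergence.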"}, "[2]": {"test_system": "blackgrass (Alopecurus myosuroides)", "conditions": "for Blackgrass plant response rating: 8 g ai/ha", "how_it_was_run": "as §1"}, "[3]": {"test_system": "cocklebur (Xanthium strumarium)", "conditions": "for Cocklebur plant response rating: 8 g ai/ha", "how_it_was_run": "as §1"}, "[4]": {"test_system": "common (oilseed) sunflower (Helianthus annuus)", "conditions": "Preemergence; for Sunflower plant response rating: scale 0 to 100", "how_it_was_run": "as §1"}, "[5]": {"test_system": "common ragweed (Ambrosia elation)", "how_it_was_run": "as §1"}, "corn (Zea mays)": {"test_system": "corn (Zea mays)", "how_it_was_run": "as §1"}, "[6]": {"test_system": "downy bromegrass (Bromus tectorum)", "conditions": "for Bromegrass, Downy plant response rating: 8 g ai/ha", "how_it_was_run": "as §1"}, "[7]": {"test_system": "eastern black (E.B.) nightshade (Solanum ptycanthum)", "conditions": "Preemergence; for Nightshade, E. B. plant response rating: scale 0 to 100", "how_it_was_run": "as §1"}, "[8]": {"test_system": "green foxtail (Setaria viridis)", "how_it_was_run": "as §1"}, "[9]": {"test_system": "surinam grass (Brachiaria decumbens)", "how_it_was_run": "as §1"}, "[10]": {"test_system": "wheat (Triticum aestivum)", "how_it_was_run": "as §1"}, "wild oat (Avena fatua)": {"test_system": "wild oat (Avena fatua)", "how_it_was_run": "as §1"}, "[11]": {"test_system": "woolly cupgrass (Eriochloa villosa)", "conditions": "for Cupgrass, Woolly plant response rating: 8 g ai/ha", "how_it_was_run": "as §1"}, "[12]": {"test_system": "yellow nutsedge (Cyperus esculentus)", "how_it_was_run": "as §1"}, "[13]": {"conditions": "31 g ai/ha, scale 0 to 100 (0 no effect, 100 complete control)"}, "[14]": {"conditions": "62 g ai/ha, 0 to 100 scale, 0 no effect, 100 complete control"}, "[15]": {"conditions": "Postemergence, 16 g ai/ha, scale 0 to 100"}, "[16]": {"conditions": "Postemergence, 31 g ai/ha, scale 0 to 100"}, "[17]": {"conditions": "Postemergence, 62 g ai/ha, scale 0 to 100, 0 no effect, 100 complete control"}, "[18]": {"conditions": "Preemergence, 16 g ai/ha, scale 0 to 100 (0 no effect, 100 complete control)"}, "[19]": {"conditions": "Preemergence, 31 g ai/ha, scale 0 to 100 (0 no effect, 100 complete control)"}, "[20]": {"conditions": "Preemergence, 62 g ai/ha, 0 to 100 scale, 0 no effect, 100 complete control"}, "[21]": {"conditions": "8 g ai/ha, postemergence, 0-100 scale"}, "[22]": {"conditions": "16 g ai/ha, postemergence, 0-100 scale"}, "[23]": {"conditions": "Preemergence, 8 g ai/ha, scale 0 to 100"}, "[24]": {"conditions": "Preemergence, 16 g ai/ha, scale 0 to 100"}}, "data": [{"smiles": "CCCc1cc(-c2ccc(C(F)(F)F)cc2)nn1-c1c(O)cnn(C)c1=O", "note": "[Compound 72]", "values": [{"measurement": "Plant response rating, Russian Thistle", "setting": "[1]; [13]", "value": 0}, {"measurement": "Plant response rating, Russian Thistle", "setting": "[1]; [14]", "value": 0}, {"measurement": "Russian Thistle plant response rating", "setting": "[1]; 8 g ai/ha", "value": 0}, {"measurement": "Russian Thistle plant response rating", "setting": "[1]; 16 g ai/ha", "value": 0}, {"measurement": "Blackgrass plant response rating", "setting": "[2]; postemergence, 0-100 scale", "value": 80}, {"measurement": "Plant response rating, Blackgrass", "setting": "[2]; [15]", "value": 95}, {"measurement": "Plant response rating, Blackgrass", "setting": "[2]; [16]", "value": 98}, {"measurement": "Plant response rating, Blackgrass", "setting": "[2]; [17]", "value": 100}, {"measurement": "Plant response rating, Blackgrass", "setting": "[2]; [18]", "value": 90}, {"measurement": "Plant response rating, Blackgrass", "setting": "[2]; [19]", "value": 95}, {"measurement": "Plant response rating, Blackgrass", "setting": "[2]; [20]", "value": 100}, {"measurement": "Blackgrass plant response rating", "setting": "[2]; Preemergence, scale 0 to 100", "value": 60}, {"measurement": "Cocklebur plant response rating", "setting": "[3]; postemergence, 0-100 scale", "value": 0}, {"measurement": "Plant response rating, Cocklebur", "setting": "[3]; [15]", "value": 0}, {"measurement": "Plant response rating, Cocklebur", "setting": "[3]; [16]", "value": 0}, {"measurement": "Plant response rating, Cocklebur", "setting": "[3]; [17]", "value": 0}, {"measurement": "Plant response rating, Cocklebur", "setting": "[3]; [18]", "value": 0}, {"measurement": "Plant response rating, Cocklebur", "setting": "[3]; [19]", "value": 0}, {"measurement": "Plant response rating, Cocklebur", "setting": "[3]; [20]", "value": 0}, {"measurement": "Cocklebur plant response rating", "setting": "[3]; Preemergence, scale 0 to 100", "value": 0}, {"measurement": "Plant response rating, Sunflower", "setting": "[4]; [13]", "value": 0}, {"measurement": "Plant response rating, Sunflower", "setting": "[4]; [14]", "value": 0}, {"measurement": "Sunflower plant response rating", "setting": "[4]; 8 g ai/ha", "value": 0}, {"measurement": "Sunflower plant response rating", "setting": "[4]; 16 g ai/ha", "value": 0}, {"measurement": "Ragweed plant response rating", "setting": "[5]; [21]", "value": 0}, {"measurement": "Ragweed plant response rating", "setting": "[5]; [22]", "value": 0}, {"measurement": "Plant response rating, Ragweed", "setting": "[5]; [16]", "value": 0}, {"measurement": "Plant response rating, Ragweed", "setting": "[5]; [17]", "value": 0}, {"measurement": "Plant response rating, Ragweed", "setting": "[5]; [19]", "value": 0}, {"measurement": "Plant response rating, Ragweed", "setting": "[5]; [20]", "value": 10}, {"measurement": "Ragweed plant response rating", "setting": "[5]; [23]", "value": 0}, {"measurement": "Ragweed plant response rating", "setting": "[5]; [24]", "value": 0}, {"measurement": "Corn plant response rating", "setting": "corn (Zea mays); [21]", "value": 50}, {"measurement": "Plant response rating, Corn", "setting": "corn (Zea mays); [15]", "value": 90}, {"measurement": "Plant response rating, Corn", "setting": "corn (Zea mays); [16]", "value": 90}, {"measurement": "Plant response rating, Corn", "setting": "corn (Zea mays); [17]", "value": 100}, {"measurement": "Plant response rating, Corn", "setting": "corn (Zea mays); [19]", "value": 85}, {"measurement": "Plant response rating, Corn", "setting": "corn (Zea mays); [20]", "value": 100}, {"measurement": "Corn plant response rating", "setting": "corn (Zea mays); [23]", "value": 70}, {"measurement": "Corn plant response rating", "setting": "corn (Zea mays); [24]", "value": 80}, {"measurement": "Bromegrass, Downy plant response rating", "setting": "[6]; postemergence, 0-100 scale", "value": 20}, {"measurement": "Plant response rating, Bromegrass, Downy", "setting": "[6]; [15]", "value": 30}, {"measurement": "Plant response rating, Bromegrass, Downy", "setting": "[6]; [16]", "value": 30}, {"measurement": "Plant response rating, Bromegrass, Downy", "setting": "[6]; [17]", "value": 30}, {"measurement": "Plant response rating, Bromegrass, Downy", "setting": "[6]; [18]", "value": 30}, {"measurement": "Plant response rating, Bromegrass, Downy", "setting": "[6]; [19]", "value": 50}, {"measurement": "Plant response rating, Bromegrass, Downy", "setting": "[6]; [20]", "value": 95}, {"measurement": "Bromegrass, Downy plant response rating", "setting": "[6]; Preemergence, scale 0 to 100", "value": 0}, {"measurement": "Plant response rating, Nightshade, E. B.", "setting": "[7]; [13]", "value": 0}, {"measurement": "Plant response rating, Nightshade, E. B.", "setting": "[7]; [14]", "value": 30}, {"measurement": "Nightshade, E. B. plant response rating", "setting": "[7]; 8 g ai/ha", "value": 0}, {"measurement": "Nightshade, E. B. plant response rating", "setting": "[7]; 16 g ai/ha", "value": 0}, {"measurement": "Foxtail, Green plant response rating", "setting": "[8]; [21]", "value": 98}, {"measurement": "Plant response rating, Foxtail, Green", "setting": "[8]; [15]", "value": 98}, {"measurement": "Plant response rating, Foxtail, Green", "setting": "[8]; [16]", "value": 100}, {"measurement": "Plant response rating, Foxtail, Green", "setting": "[8]; [17]", "value": 100}, {"measurement": "Plant response rating, Foxtail, Green", "setting": "[8]; [19]", "value": 100}, {"measurement": "Plant response rating, Foxtail, Green", "setting": "[8]; [20]", "value": 100}, {"measurement": "Foxtail, Green plant response rating", "setting": "[8]; [23]", "value": 25}, {"measurement": "Foxtail, Green plant response rating", "setting": "[8]; [24]", "value": 100}, {"measurement": "Surinam Grass plant response rating", "setting": "[9]; [21]", "value": 95}, {"measurement": "Surinam Grass plant response rating", "setting": "[9]; [22]", "value": 95}, {"measurement": "Plant response rating, Surinam Grass", "setting": "[9]; [16]", "value": 98}, {"measurement": "Plant response rating, Surinam Grass", "setting": "[9]; [17]", "value": 100}, {"measurement": "Plant response rating, Surinam Grass", "setting": "[9]; [19]", "value": 85}, {"measurement": "Plant response rating, Surinam Grass", "setting": "[9]; [20]", "value": 100}, {"measurement": "Surinam Grass plant response rating", "setting": "[9]; [24]", "value": 85}, {"measurement": "Wheat plant response rating", "setting": "[10]; [21]", "value": 85}, {"measurement": "Wheat plant response rating", "setting": "[10]; [22]", "value": 85}, {"measurement": "Plant response rating, Wheat", "setting": "[10]; [16]", "value": 85}, {"measurement": "Plant response rating, Wheat", "setting": "[10]; [17]", "value": 95}, {"measurement": "Plant response rating, Wheat", "setting": "[10]; [19]", "value": 80}, {"measurement": "Plant response rating, Wheat", "setting": "[10]; [20]", "value": 90}, {"measurement": "Wheat plant response rating", "setting": "[10]; [24]", "value": 35}, {"measurement": "Oat, Wild plant response rating", "setting": "wild oat (Avena fatua); [21]", "value": 100}, {"measurement": "Oat, Wild plant response rating", "setting": "wild oat (Avena fatua); [22]", "value": 100}, {"measurement": "Plant response rating, Oat, Wild", "setting": "wild oat (Avena fatua); [16]", "value": 100}, {"measurement": "Plant response rating, Oat, Wild", "setting": "wild oat (Avena fatua); [17]", "value": 100}, {"measurement": "Plant response rating, Oat, Wild", "setting": "wild oat (Avena fatua); [19]", "value": 95}, {"measurement": "Plant response rating, Oat, Wild", "setting": "wild oat (Avena fatua); [20]", "value": 98}, {"measurement": "Oat, Wild plant response rating", "setting": "wild oat (Avena fatua); [23]", "value": 60}, {"measurement": "Oat, Wild plant response rating", "setting": "wild oat (Avena fatua); [24]", "value": 80}, {"measurement": "Cupgrass, Woolly plant response rating", "setting": "[11]; postemergence, 0-100 scale", "value": 55}, {"measurement": "Plant response rating, Cupgrass, Woolly", "setting": "[11]; [15]", "value": 80}, {"measurement": "Plant response rating, Cupgrass, Woolly", "setting": "[11]; [16]", "value": 90}, {"measurement": "Plant response rating, Cupgrass, Woolly", "setting": "[11]; [17]", "value": 90}, {"measurement": "Plant response rating, Cupgrass, Woolly", "setting": "[11]; [19]", "value": 85}, {"measurement": "Plant response rating, Cupgrass, Woolly", "setting": "[11]; [20]", "value": 100}, {"measurement": "Cupgrass, Woolly plant response rating", "setting": "[11]; Preemergence, scale 0 to 100", "value": 70}, {"measurement": "Nutsedge, Yellow plant response rating", "setting": "[12]; [21]", "value": 0}, {"measurement": "Nutsedge, Yellow plant response rating", "setting": "[12]; [22]", "value": 0}, {"measurement": "Plant response rating, Nutsedge, Yellow", "setting": "[12]; [16]", "value": 0}, {"measurement": "Plant response rating, Nutsedge, Yellow", "setting": "[12]; [17]", "value": 0}, {"measurement": "Plant response rating, Nutsedge, Yellow", "setting": "[12]; [19]", "value": 0}, {"measurement": "Plant response rating, Nutsedge, Yellow", "setting": "[12]; [20]", "value": 0}, {"measurement": "Nutsedge, Yellow plant response rating", "setting": "[12]; [23]", "value": 0}, {"measurement": "Nutsedge, Yellow plant response rating", "setting": "[12]; [24]", "value": 0}]}]}
